Literature values in article doi:10.1101/435081v1 (bioRxiv, 2018).

System: Lb. sakei NCDO2714
Conditions: single peptide alone

| Substance | Growth inhibition when alone |
| --- | --- |
| acidocin LF221A [Acd221A] | inhibited the growth |
| acidocin LF221B [Acd221B] | inhibited the growth |
